“And” between values parts separate entries of the source, which are not always exact repeats. Identical values can stand only once. Like-named read-outs stand apart in the source and are kept apart here.
Experiments:
[1] = tested on: MOP (GIRK2 channel activation); test: GIRK channel membrane potential assay (G protein signaling); format: cell-based, mouse; settings: for values normalised to 1µM DAMGO, mean: mean of replicates; for values normalised to 1µM DAMGO (individual values): single replicate values
Method: To analyze Gi signaling, changes in membrane potential produced by activation of G protein-gated inwardly rectifying potassium channel (GIRK) were measured as previously described[50],[51]. HEK293 cells were stably transfected with HA-MOP and GFP-conjugated GIRK2 channel plasmids (OriGene). The cells were then seeded in 96-well plates and allowed to grow at 37 °C in 5% CO2 for 48 h. […] A membrane potential dye (FLIPR Membrane Potential kit BLUE, Molecular Devices R8034) was reconstituted according to the manufacturer’s instructions. To each well, 90 μl of the HBSS/HEPES buffer solution and an equal volume of the membrane potential dye were added to a final volume of 180 μl per well. The cells were then incubated at 37 °C for 45 min. Test compounds were prepared in buffer solution containing HBSS and 20 mM HEPES solution (pH 7.4) at tenfold the final concentration to be measured. […] Baseline readings were taken every 1.8 s for 1 min. […] The change in dye fluorescence was recorded for 240 s with SoftMax Pro 5.4 software. Peak fluorescence values were obtained after subtraction of baseline readings for each sample and then used to calculate concentration–response curves using Origin.

MOP, GRK2 = MOP, GRK2 (Mus musculus, UniProt P42866); settings: for GRK2 recruitment, normalised: normalized to 10 µM DAMGO
Method: Agonist-dependent binding of GRK2/3 and arrestin1/2 to a MOP was determined using a β-galactosidase complementation assay as previously described[47]. […] Cells were plated in 48-well plates and grown for 48 h. After 60 min of agonist exposure, a cell lysis reagent was added, and luminescence was recorded with a FlexStation 3 microplate reader (Molecular Devices).

CB2 cannabinoid receptor [2] = target: T1, CB2 cannabinoid receptor (Homo sapiens, UniProt P34972); test: pS335/pS336-CB2 7TM phosphorylation assay; format: cell-based; settings: for pS335/pS336 (CB2 Phosphorylation Assay): raw duplicate readings
T1 construct: host or cells: HEK293 (CB2-HEK293)

CB2 cannabinoid receptor [3] = target: T1, CB2 cannabinoid receptor; test: pT338/pT339-CB2 7TM phosphorylation assay; format: cell-based; settings: for pT338/pT339-CB2 phosphorylation (OD405): raw duplicate readings
MOP = target: T2, MOP (Mus musculus, UniProt P42866); test: [3H]DAMGO saturation binding, MOP-HEK293 membranes
T2 construct: host or cells: HEK293 (Control-HEK293 or GRK-knockout clones), stably transfected

WT-HEK293 cells = test: [3H]DAMGO saturation binding, WT-HEK293 (native) membranes

Sequence of MOP, GRK2 (P25098 whole entry): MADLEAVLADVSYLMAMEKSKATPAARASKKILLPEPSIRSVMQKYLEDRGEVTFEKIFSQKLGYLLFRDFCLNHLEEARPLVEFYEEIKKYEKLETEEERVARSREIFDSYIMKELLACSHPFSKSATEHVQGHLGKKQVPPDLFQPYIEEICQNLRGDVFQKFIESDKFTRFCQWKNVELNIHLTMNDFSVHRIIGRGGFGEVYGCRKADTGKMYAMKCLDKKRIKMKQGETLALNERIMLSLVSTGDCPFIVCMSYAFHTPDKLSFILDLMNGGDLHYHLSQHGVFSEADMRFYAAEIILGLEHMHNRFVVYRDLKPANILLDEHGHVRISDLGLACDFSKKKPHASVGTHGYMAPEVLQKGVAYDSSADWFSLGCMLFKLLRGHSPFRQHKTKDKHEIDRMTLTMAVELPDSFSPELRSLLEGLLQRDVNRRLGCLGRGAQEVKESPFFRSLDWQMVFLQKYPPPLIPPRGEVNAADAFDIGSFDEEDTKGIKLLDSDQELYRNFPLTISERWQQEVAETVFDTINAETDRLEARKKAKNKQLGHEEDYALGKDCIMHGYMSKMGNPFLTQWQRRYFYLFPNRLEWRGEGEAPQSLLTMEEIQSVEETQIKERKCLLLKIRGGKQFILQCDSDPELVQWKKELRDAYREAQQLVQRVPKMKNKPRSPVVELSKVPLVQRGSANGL
Sequence of MOP, GRK2 (P42866 whole entry): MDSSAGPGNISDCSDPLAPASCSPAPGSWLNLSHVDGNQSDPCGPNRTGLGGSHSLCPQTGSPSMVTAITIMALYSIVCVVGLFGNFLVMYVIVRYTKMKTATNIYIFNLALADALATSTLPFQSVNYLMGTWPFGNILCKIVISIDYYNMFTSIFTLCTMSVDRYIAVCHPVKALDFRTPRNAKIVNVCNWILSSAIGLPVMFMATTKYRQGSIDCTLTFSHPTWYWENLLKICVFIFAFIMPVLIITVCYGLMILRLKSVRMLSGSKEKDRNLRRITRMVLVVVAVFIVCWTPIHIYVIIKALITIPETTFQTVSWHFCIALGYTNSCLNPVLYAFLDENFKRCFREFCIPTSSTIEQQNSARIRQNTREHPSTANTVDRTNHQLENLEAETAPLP
T1 sequence (P34972 whole entry): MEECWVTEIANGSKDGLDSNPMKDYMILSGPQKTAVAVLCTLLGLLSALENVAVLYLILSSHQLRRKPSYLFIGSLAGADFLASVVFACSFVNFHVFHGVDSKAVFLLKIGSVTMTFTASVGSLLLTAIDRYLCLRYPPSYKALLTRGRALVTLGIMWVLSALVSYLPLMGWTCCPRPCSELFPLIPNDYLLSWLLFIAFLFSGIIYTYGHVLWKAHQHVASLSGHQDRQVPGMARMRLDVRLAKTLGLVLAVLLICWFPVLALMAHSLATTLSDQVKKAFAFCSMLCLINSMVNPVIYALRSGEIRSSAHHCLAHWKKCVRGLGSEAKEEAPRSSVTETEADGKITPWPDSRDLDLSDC
T2 sequence (P42866 whole entry): as the sequence (P42866 whole entry) above

`C[C@@H](NC(=O)[C@@H](N)Cc1ccc(O)cc1)C(=O)NCC(=O)N(C)[C@@H](Cc1ccccc1)C(=O)NCCO` [DAMGO, [D-Ala^2,N-MePhe^4,Gly-ol]-enkephalin] was tested, and the “pEC50 GIRK” value [1] was 8.9, the “values normalised to 1µM DAMGO, mean” value ([1]; 1pM ligand) was 5.028 and the “values normalised to 1µM DAMGO (individual values)” value ([1]; 1pM ligand) was 5.593 and 7.859 and 3.46 and 5.717 and 7.582 and 8.1092 and 3.374 and 6.042 and 4.849 and 0.5787 and 7.292 and 5.88 and 8.096 and 0.05434 and -0.3462 and 6.3053. The “values normalised to 1µM DAMGO, mean” value ([1]; 10pM ligand) was 7.472, the “values normalised to 1µM DAMGO (individual values)” value ([1]; 10pM ligand) was 15.49 and 11.6111 and 4.26 and 2.279 and 5.498 and 3.993 and 8.348 and 9.984 and 18.2069 and 4.03 and 10.8569 and 5.742 and 4.237 and 3.526 and 0.4892 and 11.0085 and the “values normalised to 1µM DAMGO, mean” value ([1]; 100pM ligand) was 9.137. For the same compound, the “values normalised to 1µM DAMGO (individual values)” value ([1]; 100pM ligand) was 16.8969 and 12.3538 and 1.282 and -0.5086 and 23.733 and 7.982 and 12.165 and 15.3952 and 18.3102 and 7.555 and 2.414 and 2.004 and 6.703 and 3.838 and 4.846 and 11.227, the “values normalised to 1µM DAMGO, mean” value ([1]; 1nM ligand) was 50.7802 and the “values normalised to 1µM DAMGO (individual values)” value ([1]; 1nM ligand) was 57.1798 and 57.3562 and 19.6942 and 27.9023 and 58.4493 and 49.8324 and 71.4212 and 70.7134 and 62.495 and 60.2954 and 56.8628 and 49.7728 and 53.0466 and 27.1278 and 35.6907 and 54.6435. For the same compound, the “values normalised to 1µM DAMGO, mean” value ([1]; 5nM ligand) was 92.3187, the “values normalised to 1µM DAMGO, mean” value ([1]; 10nM ligand) was 95.5035 and the “values normalised to 1µM DAMGO, mean” value ([1]; 50nM ligand) was 101.174. For the same compound, the “values normalised to 1µM DAMGO, mean” value ([1]; 100nM ligand) was 99.3452, the “values normalised to 1µM DAMGO (individual values)” value ([1]; 100nM ligand) was 100.4 and 100.34 and 112.066 and 111.922 and the “values normalised to 1µM DAMGO, mean” value ([1]; 0.5µM ligand) was 99.405. For the same compound, the “values normalised to 1µM DAMGO (individual values)” value ([1]; 0.5µM ligand) was 99.2581 and 100.369 and 110.848 and 112.015 and 90.6195 and 92.807 and 98.2073 and 99.2624 and 100.349 and 111.9 and 110.485 and 68.4902 and 89.9215 and 98.2442 and 106.456 and 101.247, the “DAMGO 1µM signal in RFU” value ([1]; 1µM DAMGO, one value per experiment) was 38.399 RFU and 40.2317 RFU and 34.405 RFU and 46.8468 RFU and 42.8267 RFU and 41.1246 RFU and 35.6065 RFU and 41.2536 RFU and the “values normalised to 1µM DAMGO, mean” value ([1]; 1µM ligand) was 100. For the same compound, the “values normalised to 1µM DAMGO (individual values)” value ([1]; 1µM ligand) was 102.126 and 101.322 and 95.8603 and 104.14 and 98.9994 and 101.001 and 101.569 and 98.4312 and 97.8738 and 109.455 and 90.5448 and 97.309 and 102.691 and 100.145 and 99.8548 and 98.6775, the “GRK2 recruitment, raw value” (MOP, GRK2; agonist 0.01 µM) was 1.0365 and 0.9786 and 1.1651 and 0.7672 and the “GRK2 recruitment, raw value” (MOP, GRK2; agonist 0.1 µM) was 1.7391 and 1.2836 and 1.7883 and 1.2791. For the same compound, the “GRK2 recruitment, raw value” (MOP, GRK2; agonist 1 µM) was 3.3164 and 2.1606 and 3.0001 and 2.3217, the “GRK2 recruitment, normalised” value (MOP, GRK2; agonist 1 µM) was 102.84% and 51.53% and 88.80% and 58.68% and the “GRK2 recruitment, raw value” (MOP, GRK2; agonist 10 µM) was 3.4288 and 3.1599 and 2.7372 and 3.6836. The “GRK2 recruitment, normalised” value (MOP, GRK2; agonist 10 µM) was 107.83% and 95.89% and 77.13% and 119.15%, the “GRK2 recruitment, raw value” (MOP, GRK2; agonist 100 µM) was 3.2449 and 4.0099 and 3.3544 and 3.8787 and the “GRK2 recruitment, normalised” value (MOP, GRK2; agonist 100 µM) was 99.67% and 133.63% and 104.53% and 127.81%.

With `CN1CC[C@]23c4c5ccc(O)c4O[C@H]2[C@@H](O)C=C[C@H]3[C@H]1C5` [Morphine, morphine] the “values normalised to 1µM DAMGO, mean” value ([1]; 1pM ligand) was 6.485, the “values normalised to 1µM DAMGO, mean” value ([1]; 10pM ligand) was 6.027 and the “values normalised to 1µM DAMGO, mean” value ([1]; 100pM ligand) was 6.211. The “values normalised to 1µM DAMGO, mean” value ([1]; 1nM ligand) was 9.125, the “values normalised to 1µM DAMGO, mean” value ([1]; 5nM ligand) was 29.6678 and the “values normalised to 1µM DAMGO (individual values)” value ([1]; 5nM ligand) was 45.7495 and 19.0875 and 13.0961 and 9.052 and 36.1933 and 47.9074 and 51.2561 and 57.2816 and 46.4485 and 43.1943 and 26.9461 and 14.2883 and 14.2724 and 18.5122 and 18.46 and 12.9399. For the same compound, the “values normalised to 1µM DAMGO, mean” value ([1]; 10nM ligand) was 57.2564, the “values normalised to 1µM DAMGO (individual values)” value ([1]; 10nM ligand) was 58.6156 and 56.0883 and 35.9476 and 44.5152 and 64.4335 and 68.3763 and 70.0077 and 70.5635 and 61.8308 and 50.7811 and 68.4527 and 63.2893 and 55.6505 and 50.3141 and 38.9941 and 58.2419 and the “values normalised to 1µM DAMGO, mean” value ([1]; 50nM ligand) was 66.3769. For the same compound, the “values normalised to 1µM DAMGO (individual values)” value ([1]; 50nM ligand) was 62.166 and 62.2926 and 44.6191 and 54.7318 and 72.3421 and 70.8947 and 81.0497 and 84.3524 and 69.6407 and 82.417 and 82.3952 and 62.9287 and 75.1596 and 38.3592 and 49.3923 and 69.2894, the “values normalised to 1µM DAMGO, mean” value ([1]; 100nM ligand) was 74.2194 and the “values normalised to 1µM DAMGO (individual values)” value ([1]; 100nM ligand) was 89.3793 and 68.637 and 62.5767 and 14.9163 and 86.9174 and 89.8616 and 87.7405 and 94.4167 and 90.0012 and 88.0147 and 94.1235 and 58.569 and 65.3044 and 67.2492 and 54.6739 and 75.1284. For the same compound, the “values normalised to 1µM DAMGO, mean” value ([1]; 0.5µM ligand) was 76.9579, the “values normalised to 1µM DAMGO (individual values)” value ([1]; 0.5µM ligand) was 87.9206 and 64.7531 and 55.8615 and 55.3841 and 81.7364 and 84.8283 and 97.4763 and 95.5436 and 86.95 and 86.0094 and 85.8902 and 63.7515 and 63.5249 and 73.9389 and 76.3702 and 71.3871 and the “values normalised to 1µM DAMGO, mean” value ([1]; 1µM ligand) was 72.8983. The “values normalised to 1µM DAMGO (individual values)” value ([1]; 1µM ligand) was 75.501 and 68.3564 and 51.865 and 76.6338 and 75.1014 and 79.046 and 83.5821 and 81.3432 and 80.3317 and 85.1376 and 62.4253 and 66.1705 and 66.7508 and 75.1369 and 66.0921.

In the case of `CCCCCCC(C)(C)c1ccc([C@@H]2C[C@H](O)CC[C@H]2CCCO)c(O)c1` [CP55940], the “OD405 min pS335/pS336-CB2” value (CB2 cannabinoid receptor [2]) is reported as 0.38, the “pS335/pS336 (CB2 Phosphorylation Assay)” value (CB2 cannabinoid receptor [2]; CP55940 1e-6 µM) is reported as 0.4195 and 0.458 and 0.3421 and the “pS335/pS336 (CB2 Phosphorylation Assay)” value (CB2 cannabinoid receptor [2]; CP55940 1e-5 µM) is reported as 0.3429 and 0.4547 and 0.4707 and 0.3409 and 0.3589 and 0.38. The “pS335/pS336 (CB2 Phosphorylation Assay)” value (CB2 cannabinoid receptor [2]; CP55940 0.0001 µM) was 0.3452 and 0.3952 and 0.4236 and 0.425 and 0.3513 and 0.3869, the “pS335/pS336 (CB2 Phosphorylation Assay)” value (CB2 cannabinoid receptor [2]; CP55940 0.001 µM) was 0.3318 and 0.3924 and 0.4101 and 0.3997 and 0.3583 and the “pS335/pS336 (CB2 Phosphorylation Assay)” value (CB2 cannabinoid receptor [2]; CP55940 0.1 µM) was 0.8954. The “pS335/pS336 (CB2 Phosphorylation Assay)” value (CB2 cannabinoid receptor [2]; CP55940 1 µM) was 1.0018 and 0.9312 and 1.0017 and 0.8185, the “pS335/pS336 (CB2 Phosphorylation Assay)” value (CB2 cannabinoid receptor [2]; CP55940 10 µM) was 0.9538 and 0.8534 and the “OD405 max pT338/pT339-CB2” value (CB2 cannabinoid receptor [3]) was 1.74. For the same compound, the “pT338/pT339-CB2 phosphorylation (OD405)” value (CB2 cannabinoid receptor [3]; CP55940 0.01 µM) was 0.418 and 0.427 and 0.4081 and 0.4835 and 0.513, the “pT338/pT339-CB2 phosphorylation (OD405)” value (CB2 cannabinoid receptor [3]; CP55940 0.1 µM) was 0.4372 and 0.4959 and 0.4415 and 0.4741 and 0.5035 and 0.468 and the “pT338/pT339-CB2 phosphorylation (OD405)” value (CB2 cannabinoid receptor [3]; CP55940 0.3 µM) was 0.4559 and 0.4962 and 0.7064 and 0.6812. For the same compound, the “pT338/pT339-CB2 phosphorylation (OD405)” value (CB2 cannabinoid receptor [3]; CP55940 1 µM) was 0.467 and 0.4332 and 0.3917 and 0.4407 and 0.4084 and 0.4786, the “pT338/pT339-CB2 phosphorylation (OD405)” value (CB2 cannabinoid receptor [3]; CP55940 3 µM) was 0.4766 and 0.4184 and 0.4965 and 0.6601 and the “pT338/pT339-CB2 phosphorylation (OD405)” value (CB2 cannabinoid receptor [3]; CP55940 10 µM) was 1.4013 and 1.5745 and 1.5305. The “pT338/pT339-CB2 phosphorylation (OD405)” value (CB2 cannabinoid receptor [3]; CP55940 30 µM) was 1.5241 and the “pT338/pT339-CB2 phosphorylation (OD405)” value (CB2 cannabinoid receptor [3]; CP55940 100 µM) was 1.603 and 1.5834 and 1.3626.

With `C[C@@H](NC(=O)[C@@H](N)Cc1ccc(O)cc1)C(=O)NCC(=O)N(C)[C@@H](Cc1ccccc1)C(=O)NCCO` [[3H]DAMGO] the Bmax (MOP; 25°C, 60 min) was 2279 ± 19 fmol/mg protein, the “saturation binding, mean, HEK293-MOP-HA” value (MOP; concentration 0.05 nM) was 173.5 and the “saturation binding, mean, HEK293-MOP-HA” value (MOP; concentration 2.05 nM) was 1520.4. For the same compound, the “saturation binding, mean, HEK293-MOP-HA” value (MOP; concentration 2.57 nM) was 1621.54, the “saturation binding, mean, HEK293-MOP-HA” value (MOP; concentration 4.21 nM) was 1763.3 and the “saturation binding, mean, HEK293-MOP-HA” value (MOP; concentration 5.23 nM) was 2020.39. For the same compound, the “saturation binding, mean, HEK293-native” value (WT-HEK293 cells; concentration 0.05 nM) was 2.17, the “saturation binding, mean, HEK293-native” value (WT-HEK293 cells; concentration 2.05 nM) was 2.19 and the “saturation binding, mean, HEK293-native” value (WT-HEK293 cells; concentration 2.57 nM) was 14.32. For the same compound, the “saturation binding, mean, HEK293-native” value (WT-HEK293 cells; concentration 4.21 nM) was 26.91 and the “saturation binding, mean, HEK293-native” value (WT-HEK293 cells; concentration 5.23 nM) was 41.11.

Reference: PMC9646841, “A bead-based GPCR phosphorylation immunoassay for high-throughput ligand profiling and GRK inhibitor screening” (Communications Biology, 2022)
